In data set [1] the target is Cytochrome P450 2C9 (Homo sapiens, UniProt P11712). Briefly: (§1) Binding affinity was measured on Cytochrome P450 2C9.
Data set [2] deals with {'v': 'CYP2C9', 'o': 'p', 'q': 'Cytochrome P450 2C9 (single_protein)'} (Homo sapiens, UniProt P11712). The description is as §1.

Molecules are shown by their SMILES.

Sequence of Cytochrome P450 2C9 (P11712 whole entry): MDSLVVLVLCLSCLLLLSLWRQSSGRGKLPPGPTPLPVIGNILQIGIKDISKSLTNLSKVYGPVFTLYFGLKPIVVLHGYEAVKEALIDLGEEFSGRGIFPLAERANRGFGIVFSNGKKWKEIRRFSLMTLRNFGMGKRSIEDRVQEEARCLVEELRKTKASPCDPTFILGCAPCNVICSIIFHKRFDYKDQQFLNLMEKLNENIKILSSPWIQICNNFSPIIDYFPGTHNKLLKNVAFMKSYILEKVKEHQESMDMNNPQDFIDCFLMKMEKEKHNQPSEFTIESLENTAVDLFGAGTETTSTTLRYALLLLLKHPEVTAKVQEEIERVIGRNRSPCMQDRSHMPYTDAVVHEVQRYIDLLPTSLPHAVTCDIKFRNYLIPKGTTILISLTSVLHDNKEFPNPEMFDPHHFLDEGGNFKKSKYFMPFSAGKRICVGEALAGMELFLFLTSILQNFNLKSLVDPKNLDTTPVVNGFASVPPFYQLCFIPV
Sequence of {'v': 'CYP2C9', 'o': 'p', 'q': 'Cytochrome P450 2C9 (single_protein)'} (P11712 whole entry): as above

As to `CC[C@H](c1ccccc1)c1c(O)c2ccccc2oc1=O`, the Ki in data set [1] and in data set [2] was 500 nM each time.

The values are drawn from BindingDB's records for doi:10.1021/jm000048n (Washington State University, 2000).
